These results are taken from patent EP0050407A1, “3,5-Disubstituted-1,2,4-triazole compounds, processes for their preparation and pharmaceutical compositions containing them” (GLAXO GROUP LIMITED, priority 1980, dated 1982).

The subject of series [1] is secretion of gastric acid. Nature of the series: perfused rat stomach test (inhibition of gastric acid secretion stimulated via histamine receptors). The format is in vivo. An excerpt: Certain novel heterocyclic derivatives have now been found which have potent activity as H2-antagonists.
The next series deals with rats. The experiment in a line: toxicity in rats. It is filed as in vivo.
Setting [2] is: administered intravenously to rats at doses of at least twice their ED50 values.

Molecules are shown by their SMILES. Where a name gives a salt, the structure may show the parent alone.

A word on the ED50: it is the dose at which the effect has come halfway, by size or by number of responders. The low end stands for an effect at a small dose, the high end for a need for a large dose. For the compound `OCCc1n[nH]c(CCCCOc2cccc(CN3CCCCC3)c2)n1` [2(a), 5-[4-[3-(1-Piperidinylmethyl)phenoxy]butyl]-1H-1,2,4-triazole-3-(2-ethanol) maleate (1:2)], the ED50 in series [1] was less than 0.63 mg/kg.

Regarding `CC(O)c1n[nH]c(CCCCOc2cccc(CN3CCCCC3)c2)n1` (stereo not shown) [2(e), 5-[4-[3-(1-piperidinylmethyl)phenoxy]butyl]-1H-1,2,4-triazole-3-(1-ethanol)oxalate (1:2)], in series [1], the ED50 is less than 0.63 mg/kg.

`CC(=O)OCc1n[nH]c(CCCCOc2cccc(CN3CCCCC3)c2)n1` [Example 3, 5-[4-[3-(1-Piperidinylmethyl)phenoxy]butyl]-1H-1,2,4-triazole-3-methanol acetate(ester)fumarate] registered an ED50 in series [1] of less than 0.63 mg/kg.

The compound `OCc1n[nH]c(CCCCOc2cccc(CN3CCCCC3)c2)n1` [Example 6] displayed an ED50 in series [1] of less than 0.63 mg/kg. Also, in the series with rats (administered orally to rats at a dose of 400 mg/kg), the toxic effects result is on record as “no toxic effects”.

In the case of `CS(=O)(=O)Cc1n[nH]c(CCCCOc2cccc(CN3CCCCC3)c2)n1` [Example 7, 3-(Methylsulphonyl)methyl-5-[4-[3-(1-piperidinylmethyl)phenoxy]butyl]-lH-l,2,4-triazole], the ED50 in series [1] is less than 0.63 mg/kg. Moreover, the toxic effects result in the series on rats (setting [2]) is listed as “no toxic effects”.

Compound `O=Cc1n[nH]c(CCCCOc2cccc(CN3CCCCC3)c2)n1` [Example 8, 5-[4-[3-(1-Piperidinylmethyl)phenoxy]butyl]-1H-1,2,4-triazole-3-carboxaldehyde hydrate] came in with an ED50 in series [1] of less than 0.63 mg/kg.

In turn, `ON=Cc1n[nH]c(CCCCOc2cccc(CN3CCCCC3)c2)n1` [Example 9, 5-[4-[3-(1-Piperidinylmethyl)phenoxy]butyl]-1H-1,2,4,- triazole-3-carboxaldehyde oxime] displayed an ED50 in series [1] of less than 0.63 mg/kg. The toxic effects result with rats (setting [2]) is on record as “no toxic effects”.
